The text below walks through data of patent publication US7902373B2 (Pfizer Inc, priority 2006, dated 2011).

As a reminder, the pIC50 is the negative decadic logarithm of the IC50, by convention in mol/L.

The structures appear in SMILES notation. pIC50: −log10 of the molar value.

This experiment concerns the target human recombinant H-PGDS (Homo sapiens, UniProt O60760). The experiment can be described thus: Fluorescence intensity h-PGDS TBA enzyme assay. The class given is biochemical. Conditions: Examples up to 622 (and 3a, 3b).

Chain of human recombinant H-PGDS (O60760 whole entry): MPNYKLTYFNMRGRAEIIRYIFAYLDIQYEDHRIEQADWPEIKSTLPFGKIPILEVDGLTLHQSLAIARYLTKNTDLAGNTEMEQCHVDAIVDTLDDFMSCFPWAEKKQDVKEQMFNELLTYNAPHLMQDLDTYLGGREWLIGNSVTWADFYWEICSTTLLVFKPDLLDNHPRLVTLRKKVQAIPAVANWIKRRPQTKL

Take `CC(C)n1cnc2c(N3CCC(NC(=O)c4ccc(-c5cccc(F)c5)nc4)CC3)ncnc21` [Example 118, 6-(3-Fluorophenyl)-N-[1-(9-isopropyl-9H-purin-6-yl)piperidin-4-yl]nicotinamide]: the pIC50 was 9.05.
On to `Cc1noc(NC(=O)c2cccnc2N2CCC(NC(=O)c3ccc(-c4cccc(F)c4)nc3)CC2)c1C#N` [Example 141, N-(4-Cyano-3-methylisoxazol-5-yl)-2-[4-({[6-(3-fluorophenyl)pyridin-3-yl]carbonyl}amino)piperidin-1-yl]nicotinamide], for which the negative-log IC50 (pIC50) is 9.14.
As to `CC(C)OC(=O)Cn1nnnc1N1CCC(NC(=O)c2ccc(-c3cccc(F)c3)nc2)CC1` [Example 100, Isopropyl {5-[4-({[6-(3-fluorophenyl)pyridin-3-yl]carbonyl}amino)piperidin-1-yl]-1H-tetrazol-1-yl}acetate], the pIC50 was 8.82.
The same measure for `O=C(NC1CCN(c2ncccc2C(=O)c2ccccn2)CC1)c1ccc(-c2cccc(F)c2)nc1` [Example 74, 6-(3-Fluorophenyl)-N-{1-[3-(pyridin-2-ylcarbonyl)pyridin-2-yl]piperidin-4-yl}nicotinamide]: 9.53; for `O=C(NC1CCN(Cc2ccc(-n3cccn3)cc2)CC1)c1ccc(-c2cccc(F)c2)nc1` [Example 210, 6-(3-Fluorophenyl)-N-{1-[4-(1H-pyrazol-1-yl)benzyl]piperidin-4-yl}nicotinamide]: 9.34.
With `COc1ccc(CN2CCC(NC(=O)c3ccc(-c4cccc(F)c4)nc3)CC2)cc1C` [Example 235, 6-(3-Fluorophenyl)-N-[1-(4-methoxy-3-methylbenzyl)piperidin-4-yl]nicotinamide] the figure was 8.70; with `O=CN1CCC(NC(=O)c2ccc(-c3cccc(F)c3)nc2)CC1` [Example 524, 6-(3-Fluorophenyl)-N-(1-formylpiperidin-4-yl)nicotinamide], 8.75; with `CC(C)(O)c1ccc(CN2CCC(NC(=O)c3ccc(-c4cccc(F)c4)nc3)CC2)c(F)c1` [Example 419, N-[1-(2-Fluoro-4-(1-hydroxy-1-methylethyl)benzyl]piperidin-4-yl}-6-(3-fluorophenyl)nicotinamide], 8.99.
Take `CC(C)CN(C)C(=O)c1ccc(N2CCC(NC(=O)c3ccc(-c4cccc(F)c4)nc3)CC2)nn1` [Example 159, 6-[4-({[6-(3-Fluorophenyl)pyridin-3-yl]carbonyl}amino)piperidin-1-yl]-N-isobutyl-N-methylpyridazine-3-carboxamide]: the pIC50 is 8.80.
On to `O=C(NC1CCN(c2ncnc3c2ncn3CC(F)(F)F)CC1)c1ccc(-c2cccc(F)c2)nc1` [Example 106], for which the pIC50 is 9.06.
The same measure for `O=C(NC1CCN(Cc2c[nH]cn2)CC1)c1ccc(-c2cccc(F)c2)nc1` [Example 294, 6-(3-Fluorophenyl)-N-[1-(1H-imidazol-4-ylmethyl)piperidin-4-yl]nicotinamide]: 8.75.
The same measure for `COc1cccc(-c2ccc(C(=O)NC3CCN(C(C)C)CC3)cn2)c1` [Example 20, N-(1-Isopropylpiperidin-4-yl)-6-(3-methoxyphenyl)nicotinamide]: 6.00.
On to `CCCn1cc(CN2CCC(NC(=O)c3ccc(-c4cccc(F)c4)nc3)CC2)c(C)n1` [Example 427, 6-(3-Fluorophenyl)-N-{1-[(3-methyl-1-propyl-1H-pyrazol-4-yl)methyl]piperidin-4-yl}nicotinamide], for which the pIC50 was 9.18.
The same measure for `COCc1cc(CN2CCC(NC(=O)c3ccc(-c4cccc(F)c4)nc3)CC2)ccc1OC` [Example 327, 6-(3-Fluorophenyl)-N-{1-[4-methoxy-3-(methoxymethyl)benzyl]piperidin-4-yl}nicotinamide]: 8.81.
With `Cn1cnc2c(N3CCC(NC(=O)c4ccc(-c5cccc(F)c5)nc4)CC3)ncnc21` [Example 125, 6-(3-Fluorophenyl)-N-[1-(9-methyl-9H-purin-6-yl)piperidin-4-yl]nicotinamide], the negative-log IC50 (pIC50) was 9.75.
`O=C(NC1CCN(Cc2cccc3c2OCC3)CC1)c1ccc(-c2cccc(F)c2)nc1` [Example 490, N-[1-(2,3-Dihydro-1-benzofuran-7-ylmethyl)piperidin-4-yl]-6-(3-fluorophenyl)nicotinamide]: the pIC50 is 9.22.
With `O=C(NC1CCN(c2ncnc3[nH]ncc23)CC1)c1ccc(-c2cccc(F)c2)nc1` [Example 129, 6-(3-Fluorophenyl)-N-[1-(1H-pyrazolo[3,4-d]pyrimidin-4-yl)piperidin-4-yl]nicotinamide] the figure was 8.20.
On to `O=C(NC1CCN(Cc2cnn3c2CCCCC3)CC1)c1ccc(-c2cccc(F)c2)nc1` [Example 387, 6-(3-Fluorophenyl)-N-[1-(5,6,7,8-tetrahydro-4H-pyrazolo[1,5-a]azepin-3-ylmethyl)piperidin-4-yl]nicotinamide], for which the pIC50 was 8.73.
With `CCOc1ccccc1CN1CCC(NC(=O)c2ccc(-c3cccc(F)c3)nc2)CC1` [Example 229, N-[1-(2-Ethoxybenzyl)piperidin-4-yl]-6-(3-fluorophenyl)nicotinamide] the figure was 9.29; with `O=C(NC1CCN(Cc2n[nH]c3ccc(Cl)cc23)CC1)c1ccc(-c2cccc(F)c2)nc1` [Example 512, N-{1-[(5-Chloro-1H-indazol-3-yl)methyl]piperidin-4-yl}-6-(3-fluorophenyl)nicotinamide], 9.41.
Turning to `Cc1nc(-c2ccccn2)nc(N2CCC(NC(=O)c3ccc(-c4cccc(F)c4)nc3)CC2)c1Cl` [Example 48, N-[1-(5-Chloro-6-methyl-2-pyridin-2-ylpyrimidin-4-yl)piperidin-4-yl]-6-(3-fluorophenyl)nicotinamide], the pIC50 is 8.54.
The same measure for `COc1ccnc(N2CCC(NC(=O)c3ccc(-c4cccc(F)c4)nc3)CC2)c1C#N` [Example 67, N-[1-(3-Cyano-4-methoxypyridin-2-yl)piperidin-4-yl]-6-(3-fluorophenyl)nicotinamide]: 9.02; for `O=C(NC1CCN(Cc2ccc(=O)[nH]n2)CC1)c1ccc(-c2cccc(F)c2)nc1` [Example 469, 6-(3-Fluorophenyl)-N-{1-[(6-oxo-1,6-dihydropyridazin-3-yl)methyl]piperidin-4-yl}nicotinamide]: 9.07; for `COc1ccccc1-c1c(CN2CCC(NC(=O)c3ccc(-c4cccc(F)c4)nc3)CC2)cnn1C` [Example 508, 6-(3-Fluorophenyl)-N-(1-{[5-(2-methoxyphenyl)-1-methyl-1H-pyrazol-4-yl]methyl}piperidin-4-yl)nicotinamide]: 9.26.
In the case of `O=C(NC1CCN(c2ccc(C(=O)N3CCOCC3)cn2)CC1)c1ccc(-c2cccc(F)c2)nc1` [Example 50, 6-(3-Fluorophenyl)-N-{1-[5-(morpholin-4-ylcarbonyl)pyridin-2-yl]piperidin-4-yl}nicotinamide], the pIC50 was 9.17.
Turning to `CCOC(=O)c1cnc(C(F)(F)F)nc1N1CCC(NC(=O)c2ccc(-c3cccc(F)c3)nc2)CC1` [Example 145, Ethyl 4-[4-({[6-(3-fluorophenyl)pyridin-3-yl]carbonyl}amino)piperidin-1-yl]-2-(trifluoromethyl)pyrimidine-5-carboxylate], the pIC50 is 8.23.
With `O=C(NC1CCN(Cc2c[nH]nc2-c2ccccc2)CC1)c1ccc(-c2cccc(F)c2)nc1` [Example 182, 6-(3-Fluorophenyl)-N-{1-[(3-phenyl-1H-pyrazol-4-yl)methyl]piperidin-4-yl}nicotinamide] the figure was 9.37; with `CCOC(=O)N1CCC(NC(=O)c2ccc(-c3cccc(OC)c3)nc2)CC1` [Example 18, Ethyl 4-({[6-(3-methoxyphenyl)pyridin-3-yl]carbonyl}amino)piperidine-1-carboxylate], 8.40; with `CC(CC1CC1)N1CCC(NC(=O)c2ccc(-c3cccc(F)c3)nc2)CC1` (stereo not shown) [Example 527, N-[1-(2-Cyclopropyl-1-methylethyl)piperidin-4-yl]-6-(3-fluorophenyl)nicotinamide], 8.55.
Take `O=C(NC1CCN(Cc2ccc(OCCO)cc2)CC1)c1ccc(-c2cccc(F)c2)nc1` [Example 258, 6-(3-Fluorophenyl)-N-{1-[4-(2-hydroxyethoxy)benzyl]piperidin-4-yl}nicotinamide]: the negative logarithm of the IC50 (pIC50) is 8.91.
As to `Cc1cc(CN2CCC(NC(=O)c3ccc(-c4cccc(F)c4)nc3)CC2)n(C)n1` [Example 372, N-{1-[(1,3-Dimethyl-1H-pyrazol-5-yl)methyl]piperidin-4-yl}-6-(3-fluorophenyl)nicotinamide], the negative logarithm of the IC50 (pIC50) was 9.01.
Regarding `COCCCNc1nccc(CN2CCC(NC(=O)c3ccc(-c4cccc(F)c4)nc3)CC2)n1` [Example 391, 6-(3-Fluorophenyl)-N-[1-({2-[(3-methoxypropyl)amino]pyrimidin-4-yl}methyl)piperidin-4-yl]nicotinamide], the pIC50 is 8.92.
With `Nc1ncncc1CN1CCC(NC(=O)c2ccc(-c3cccc(F)c3)nc2)CC1` [Example 489, N-{1-[(4-Aminopyrimidin-5-yl)methyl]piperidin-4-yl}-6-(3-fluorophenyl)nicotinamide] the figure was 8.93.
The same measure for `O=C(NC1CCN(c2ncc3c(n2)CCC3)C1)c1ccc(-c2cccc(F)c2)nc1` (stereo not shown) [Example 595, N-[1-(6,7-Dihydro-5H-cyclopenta[d]pyrimidin-2-yl)pyrrolidin-3-yl]-6-(3-fluorophenyl)nicotinamide]: 8.97.
In the case of `O=C(NC1CCN(c2ccc(C(=O)N3CCC3)cn2)CC1)c1ccc(-c2cccc(F)c2)nc1` [Example 564, N-{1-[5-(Azetidin-1-ylcarbonyl)pyridin-2-yl]piperidin-4-yl}-6-(3-fluorophenyl)nicotinamide], the pIC50 is 8.96.
As to `O=C(NC1CCN(Cc2c(F)c(F)cc(F)c2F)CC1)c1ccc(-c2cccc(F)c2)nc1` [Example 348, 6-(3-Fluorophenyl)-N-[1-(2,3,5,6-tetrafluorobenzyl)piperidin-4-yl]nicotinamide], the pIC50 is 9.21.
With `CC(C)(C)CCN1CCC(NC(=O)c2ccc(-c3cccc(F)c3)nc2)CC1` [Example 298, N-[1-(3,3-Dimethylbutyl)piperidin-4-yl]-6-(3-fluorophenyl)nicotinamide] the figure was 9.03.
